In patent publication US9738634B2, “Heterocyclic amide compound and herbicide” (SYNGENTA PARTICIPATIONS AG, priority 2013, dated 2017):

Legend:
Format in all cases: in vivo
barnyard grass [1] = experiment: Test Example 1: weedkilling efficacy, preemergent weed treatment in the submerged state; A: barnyard grass; conditions: treatment dosage 252 g/ha
Procedure, shortened: (§1)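 Pre-emergence paddy test: weed seeds sown in submerged alluvial soil (4 cm water), 2.5-leaf rice transplanted, water-diluted emulsion applied to water surface at sowing at stated g/ha. Scored at 3 weeks, greenhouse 25–30 °C.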

bulrush [2] = experiment: Test Example 1: weedkilling efficacy, preemergent weed treatment in the submerged state; B: bulrush; conditions: treatment dosage 252 g/ha
Procedure, shortened: as §1

oval-leafed pondweed [3] = experiment: Test Example 1: weedkilling efficacy, preemergent weed treatment in the submerged state; C: oval-leafed pondweed; conditions: treatment dosage 252 g/ha
Procedure, shortened: as §1

transplanted rice = experiment: Test Example 1: preemergent weed treatment in the submerged state, effect on crop; a: transplanted rice; conditions: treatment dosage 252 g/ha
Procedure, shortened: as §1

barnyard grass [4] = experiment: Test Example 2: weedkilling efficacy, growth period weed treatment in the submerged state; A: barnyard grass; conditions: treatment dosage 252 g/ha
Procedure, shortened: (§2)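 Seedlings at 1-2 leaves in 4 cm-deep submerged alluvial soil received emulsion formulations on the water surface, dosed per hectare; effects were judged 3 weeks on.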

bulrush [5] = experiment: Test Example 2: weedkilling efficacy, growth period weed treatment in the submerged state; B: bulrush; conditions: treatment dosage 252 g/ha
Procedure, shortened: as §2

oval-leafed pondweed [6] = experiment: Test Example 2: weedkilling efficacy, growth period weed treatment in the submerged state; C: oval-leafed pondweed; conditions: treatment dosage 252 g/ha
Procedure, shortened: as §2

crabgrass [7] = experiment: Test Example 3: weedkilling efficacy through soil treatment; D: crabgrass; conditions: treatment dosage 315 g/ha
Procedure, shortened: (§3)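 Crop and weed responses were judged three weeks after a uniform surface spray of the water-diluted emulsion at the given g/ha rate. Seeds sat beneath about 1.5 cm of sterilized diluvial soil, and boxes stood in a greenhouse at 25 to 30° C.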

green foxtail [8] = experiment: Test Example 3: weedkilling efficacy through soil treatment; E: green foxtail; conditions: treatment dosage 315 g/ha
Procedure, shortened: as §3

wild oat = experiment: Test Example 3: weedkilling efficacy through soil treatment; G: wild oat; conditions: treatment dosage 315 g/ha
Procedure, shortened: as §3

black-grass [9] = experiment: Test Example 3: weedkilling efficacy through soil treatment; H: black-grass; conditions: treatment dosage 315 g/ha
Procedure, shortened: as §3

Italian ryegrass [10] = experiment: Test Example 3: weedkilling efficacy through soil treatment; I: Italian ryegrass; conditions: treatment dosage 315 g/ha
Procedure, shortened: as §3

Indian mallow [11] = experiment: Test Example 3: weedkilling efficacy through soil treatment; K: Indian mallow; conditions: treatment dosage 315 g/ha
Procedure, shortened: as §3

redroot pigweed [12] = experiment: Test Example 3: weedkilling efficacy through soil treatment; L: redroot pigweed; conditions: treatment dosage 315 g/ha
Procedure, shortened: as §3

fig-leafed goosefoot [13] = experiment: Test Example 3: weedkilling efficacy through soil treatment; M: fig-leafed goosefoot; conditions: treatment dosage 315 g/ha
Procedure, shortened: as §3

chickweed [14] = experiment: Test Example 3: weedkilling efficacy through soil treatment; N: chickweed; conditions: treatment dosage 315 g/ha
Procedure, shortened: as §3

birds-eye speedwell [15] = experiment: Test Example 3: weedkilling efficacy through soil treatment; p: birds-eye speedwell; conditions: treatment dosage 315 g/ha
Procedure, shortened: as §3

directly sown rice [16] = experiment: Test Example 3: soil treatment, effect on crop; b: directly sown rice; conditions: treatment dosage 315 g/ha
Procedure, shortened: as §3

corn [17] = experiment: Test Example 3: soil treatment, effect on crop; c: corn; conditions: treatment dosage 315 g/ha
Procedure, shortened: as §3

soybean [18] = experiment: Test Example 3: soil treatment, effect on crop; d: soybean; conditions: treatment dosage 315 g/ha
Procedure, shortened: as §3

wheat [19] = experiment: Test Example 3: soil treatment, effect on crop; e: wheat; conditions: treatment dosage 315 g/ha
Procedure, shortened: as §3

beet [20] = experiment: Test Example 3: soil treatment, effect on crop; f: beet; conditions: treatment dosage 315 g/ha
Procedure, shortened: as §3

crabgrass [21] = experiment: Test Example 4: weedkilling efficacy by foliar treatment; D: crabgrass; conditions: treatment dosage 315 g/ha
Procedure, shortened: (§4)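 Seeds are spot-sown into sterilized diluvial soil and covered with about 1.5 cm of soil. After 14 days' greenhouse growth at 25 to 30° C, plants are sprayed on stems and leaves with diluted emulsion at the stated g/ha rate, then scored at 3 weeks.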

green foxtail [22] = experiment: Test Example 4: weedkilling efficacy by foliar treatment; E: green foxtail; conditions: treatment dosage 315 g/ha
Procedure, shortened: as §4

black-grass [23] = experiment: Test Example 4: weedkilling efficacy by foliar treatment; H: black-grass; conditions: treatment dosage 315 g/ha
Procedure, shortened: as §4

Italian ryegrass [24] = experiment: Test Example 4: weedkilling efficacy by foliar treatment; I: Italian ryegrass; conditions: treatment dosage 315 g/ha
Procedure, shortened: as §4

Indian mallow [25] = experiment: Test Example 4: weedkilling efficacy by foliar treatment; K: Indian mallow; conditions: treatment dosage 315 g/ha
Procedure, shortened: as §4

redroot pigweed [26] = experiment: Test Example 4: weedkilling efficacy by foliar treatment; L: redroot pigweed; conditions: treatment dosage 315 g/ha
Procedure, shortened: as §4

fig-leafed goosefoot [27] = experiment: Test Example 4: weedkilling efficacy by foliar treatment; M: fig-leafed goosefoot; conditions: treatment dosage 315 g/ha
Procedure, shortened: as §4

chickweed [28] = experiment: Test Example 4: weedkilling efficacy by foliar treatment; N: chickweed; conditions: treatment dosage 315 g/ha
Procedure, shortened: as §4

catchweed = experiment: Test Example 4: weedkilling efficacy by foliar treatment; O: catchweed; conditions: treatment dosage 315 g/ha
Procedure, shortened: as §4

birds-eye speedwell [29] = experiment: Test Example 4: weedkilling efficacy by foliar treatment; p: birds-eye speedwell; conditions: treatment dosage 315 g/ha
Procedure, shortened: as §4

directly sown rice [30] = experiment: Test Example 4: foliar treatment, effect on crop; b: directly sown rice; conditions: treatment dosage 315 g/ha
Procedure, shortened: as §4

corn [31] = experiment: Test Example 4: foliar treatment, effect on crop; c: corn; conditions: treatment dosage 315 g/ha
Procedure, shortened: as §4

soybean [32] = experiment: Test Example 4: foliar treatment, effect on crop; d: soybean; conditions: treatment dosage 315 g/ha
Procedure, shortened: as §4

wheat [33] = experiment: Test Example 4: foliar treatment, effect on crop; e: wheat; conditions: treatment dosage 315 g/ha
Procedure, shortened: as §4

beet [34] = experiment: Test Example 4: foliar treatment, effect on crop; f: beet; conditions: treatment dosage 315 g/ha
Procedure, shortened: as §4

CC1=C(c2ccsc2)C(=O)N(C(C)(C)C(=O)Nc2cccc(F)n2)CO1 [B-2-04]
A (barnyard grass) weedkilling efficacy grade (barnyard grass [1]): 5 (weed kill ratio 90% or more, (practically complete withering)) | B (bulrush) weedkilling efficacy grade (bulrush [2]): 5 (weed kill ratio 90% or more, (practically complete withering)) | C (oval-leafed pondweed) weedkilling efficacy grade (oval-leafed pondweed [3]): 5 (weed kill ratio 90% or more, (practically complete withering)) | a (transplanted rice) effect on crop grade (transplanted rice): 3 (weed kill ratio 40% or more, less than 70%) | A (barnyard grass) weedkilling efficacy grade (barnyard grass [4]): 5 (weed kill ratio 90% or more, (practically complete withering)) | B (bulrush) weedkilling efficacy grade (bulrush [5]): 5 (weed kill ratio 90% or more, (practically complete withering)) | C (oval-leafed pondweed) weedkilling efficacy grade (oval-leafed pondweed [6]): 5 (weed kill ratio 90% or more, (practically complete withering)) | D (crabgrass) weedkilling efficacy grade (crabgrass [7]): 5 (weed kill ratio 90% or more, (practically complete withering)) | E (green foxtail) weedkilling efficacy grade (green foxtail [8]): 5 (weed kill ratio 90% or more, (practically complete withering)) | G (wild oat) weedkilling efficacy grade (wild oat): 5 (weed kill ratio 90% or more, (practically complete withering)) | H (black-grass) weedkilling efficacy grade (black-grass [9]): 5 (weed kill ratio 90% or more, (practically complete withering)) | I (Italian ryegrass) weedkilling efficacy grade (Italian ryegrass [10]): 5 (weed kill ratio 90% or more, (practically complete withering)) | K (Indian mallow) weedkilling efficacy grade (Indian mallow [11]): 4 (weed kill ratio 70% or more, less than 90%) | L (redroot pigweed) weedkilling efficacy grade (redroot pigweed [12]): 4 (weed kill ratio 70% or more, less than 90%) | M (fig-leafed goosefoot) weedkilling efficacy grade (fig-leafed goosefoot [13]): 5 (weed kill ratio 90% or more, (practically complete withering)) | N (chickweed) weedkilling efficacy grade (chickweed [14]): 5 (weed kill ratio 90% or more, (practically complete withering)) | P (birds-eye speedwell) weedkilling efficacy grade (birds-eye speedwell [15]): 5 (weed kill ratio 90% or more, (practically complete withering)) | b (directly sown rice) effect on crop grade (directly sown rice [16]): 5 (weed kill ratio 90% or more, (practically complete withering)) | c (corn) effect on crop grade (corn [17]): 1 (weed kill ratio 5% or more, less than 20%) | d (soybean) effect on crop grade (soybean [18]): 0 (weed kill ratio 5% or less (practically no effect)) | e (wheat) effect on crop grade (wheat [19]): 5 (weed kill ratio 90% or more, (practically complete withering)) | f (beet) effect on crop grade (beet [20]): 5 (weed kill ratio 90% or more, (practically complete withering)) | D (crabgrass) weedkilling efficacy grade (crabgrass [21]): 5 (weed kill ratio 90% or more, (practically complete withering)) | E (green foxtail) weedkilling efficacy grade (green foxtail [22]): 5 (weed kill ratio 90% or more, (practically complete withering)) | H (black-grass) weedkilling efficacy grade (black-grass [23]): 5 (weed kill ratio 90% or more, (practically complete withering)) | I (Italian ryegrass) weedkilling efficacy grade (Italian ryegrass [24]): 5 (weed kill ratio 90% or more, (practically complete withering)) | K (Indian mallow) weedkilling efficacy grade (Indian mallow [25]): 5 (weed kill ratio 90% or more, (practically complete withering)) | L (redroot pigweed) weedkilling efficacy grade (redroot pigweed [26]): 5 (weed kill ratio 90% or more, (practically complete withering)) | M (fig-leafed goosefoot) weedkilling efficacy grade (fig-leafed goosefoot [27]): 5 (weed kill ratio 90% or more, (practically complete withering)) | N (chickweed) weedkilling efficacy grade (chickweed [28]): 4 (weed kill ratio 70% or more, less than 90%) | O (catchweed) weedkilling efficacy grade (catchweed): 4 (weed kill ratio 70% or more, less than 90%) | P (birds-eye speedwell) weedkilling efficacy grade (birds-eye speedwell [29]): 5 (weed kill ratio 90% or more, (practically complete withering)) | b (directly sown rice) effect on crop grade (directly sown rice [30]): 5 (weed kill ratio 90% or more, (practically complete withering)) | c (corn) effect on crop grade (corn [31]): 3 (weed kill ratio 40% or more, less than 70%) | d (soybean) effect on crop grade (soybean [32]): 4 (weed kill ratio 70% or more, less than 90%) | e (wheat) effect on crop grade (wheat [33]): 5 (weed kill ratio 90% or more, (practically complete withering)) | f (beet) effect on crop grade (beet [34]): 5 (weed kill ratio 90% or more, (practically complete withering))
